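Briefly, cells in 96-well plates were exposed to five compound concentrations for 48 h, and endpoints were estimated by linear interpolation. The concentration for 50% growth inhibition is given as GI50. TGI: total growth inhibition.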
Assays:
Experiment in all cases: growth of human tumour cells (NCI), 48 h
ACHN renal = test system: ACHN renal
CCRF-CEM leukemia = test system: CCRF-CEM leukemia
HL-60(TB) leukemia = test system: HL-60(TB) leukemia
HOP-92 NSCLC = test system: HOP-92 NSCLC
HT29 colon = test system: HT29 colon
IGROV1 ovarian = test system: IGROV1 ovarian
NCI-H23 lung = test system: NCI-H23 lung
SF-295 CNS = test system: SF-295 CNS
SK-MEL-2 melanoma = test system: SK-MEL-2 melanoma
SK-MEL-28 melanoma = test system: SK-MEL-28 melanoma

Row | SMILES | GI50 (ACHN renal) | TGI (ACHN renal) | GI50 (CCRF-CEM leukemia) | TGI (CCRF-CEM leukemia) | GI50 (HL-60(TB) leukemia) | TGI (HL-60(TB) leukemia) | GI50 (HOP-92 NSCLC) | TGI (HOP-92 NSCLC) | GI50 (HT29 colon) | TGI (HT29 colon) | GI50 (IGROV1 ovarian) | TGI (IGROV1 ovarian) | GI50 (NCI-H23 lung) | TGI (NCI-H23 lung) | GI50 (SF-295 CNS) | TGI (SF-295 CNS) | GI50 (SK-MEL-2 melanoma) | TGI (SK-MEL-2 melanoma) | GI50 (SK-MEL-28 melanoma) | TGI (SK-MEL-28 melanoma)
1 | COC(=O)/C=C/c1cc(OC(C)=O)c2c(c1)C(C(=O)OC)C(c1ccc(OC(C)=O)c(OC(C)=O)c1)O2 (stereo not drawn) | 0.0779 µM | 35.5 µM | 0.0404 µM | > 100 µM | 0.0273 µM | 0.114 µM | 0.35 µM | 24.8 µM | 2.65 µM | > 77.5 µM | 0.589 µM | > 100 µM | 0.171 µM | > 100 µM | 0.222 µM | 14.1 µM | 3.69 µM | > 100 µM | 0.905 µM | 59.7 µM
2 | COc1cc2c3c(n(C)c(=O)c2cc1OC)-c1cc2c(cc1C3=O)OCO2 | – | > 60.5 µM | – | 22.5 µM | – | > 100 µM | – | > 100 µM | – | > 100 µM | – | 40.9 µM | – | 37 µM | – | > 61.3 µM | – | > 72.2 µM | – | > 100 µM
3 | CNc1cc2oc(=O)cc(C)c2cc1C | – | > 100 µM | – | > 100 µM | – | > 100 µM | – | > 100 µM | – | > 100 µM | – | > 100 µM | – | > 100 µM | – | > 100 µM | – | > 100 µM | – | > 100 µM
4 | COc1ccc(-c2c(C#N)c(N3CCOCC3)nc3[nH]c(=S)[nH]c(=S)c23)cc1OC | 35.8 µM | > 100 µM | 41.3 µM | > 100 µM | 36.2 µM | > 100 µM | 48.2 µM | > 100 µM | – | – | > 100 µM | > 100 µM | 20.9 µM | > 100 µM | 40.1 µM | > 100 µM | > 100 µM | > 100 µM | > 100 µM | > 100 µM
5 | CCCCCCn1c(-c2ccc(C(=O)O/N=C(\N)c3ccc4c(c3)OCO4)cc2)nc(-c2ccccc2)c1-c1ccccc1 | 0.387 µM | 1.46 µM | 1.29 µM | 4.25 µM | 1.42 µM | 3.49 µM | 1.48 µM | 3.3 µM | 3.64 µM | 39.1 µM | 0.463 µM | 1.93 µM | 1.48 µM | 3.05 µM | 1.69 µM | 3.35 µM | 4.19 µM | 21.7 µM | 4.47 µM | 22.7 µM
6 | CC(C)C1CN(C(=O)OCc2ccccc2)C2N1C(=O)C2(C)OCc1ccccc1 (stereo not drawn) | – | > 100 µM | – | > 100 µM | – | 66.9 µM | – | – | – | > 100 µM | – | > 100 µM | – | > 100 µM | – | > 100 µM | – | 73.5 µM | – | > 100 µM
7 | CN(C)CCNC(=O)Cc1ccccc1Nc1c(Cl)cccc1Cl | – | 33.3 µM | – | 34 µM | – | 36.1 µM | – | – | – | 23.5 µM | – | 38.4 µM | – | 33.4 µM | – | 30.1 µM | – | – | – | 33.7 µM
8 | C=C(CN(C)Cc1ccccc1)c1ccc(NC(=O)c2ccc(C(=C)CN(C)Cc3ccccc3)cc2)cc1 | 66.6 µM | > 100 µM | > 100 µM | > 100 µM | – | – | – | – | > 100 µM | > 100 µM | 18.5 µM | 53.2 µM | 49.4 µM | > 100 µM | 71.4 µM | > 100 µM | 60.9 µM | > 100 µM | > 100 µM | > 100 µM
9 | CCC(C)(C)n1c(C)nc2c1C(=O)c1ccccc1C2=O | – | > 100 µM | – | > 100 µM | – | 47.9 µM | – | – | – | > 100 µM | – | > 100 µM | – | 60.4 µM | – | > 100 µM | – | 42.3 µM | – | > 100 µM
10 | O=[N+]([O-])c1cccnc1N=Nc1c(O)[nH]c2ccccc12 | – | 36 µM | – | – | – | – | – | > 100 µM | – | 26 µM | – | 53.9 µM | – | – | – | 38.7 µM | – | 53.4 µM | – | 74.4 µM
11 | CCOc1ccc(OCC(=O)O)c2c1CCCC2=O | – | > 100 µM | – | – | – | > 100 µM | – | > 100 µM | – | > 100 µM | – | > 100 µM | – | > 100 µM | – | > 100 µM | – | > 100 µM | – | > 100 µM
12 | Cc1cc(C(=O)CSC(=S)SC(C)(C)C)ccc1Cl | – | 62.9 µM | – | – | – | 44.1 µM | – | 70.3 µM | – | 69 µM | – | > 100 µM | – | > 100 µM | – | 37.1 µM | – | 35 µM | – | 35.6 µM
13 | COc1c(C)c(OCC=C(C)C)cc(CO)c1CO | – | > 100 µM | – | > 100 µM | – | > 100 µM | – | > 100 µM | – | > 100 µM | – | > 100 µM | – | > 100 µM | – | > 100 µM | – | > 100 µM | – | –
14 | Oc1oc(C(=C2N=c3ccccc3=N2)c2ccc(Cl)cc2)c(O)c1-c1ccc(Cl)cc1 | – | 14.7 µM | – | > 100 µM | – | 5.02 µM | – | 4.47 µM | – | 10.7 µM | – | > 100 µM | – | 4.34 µM | – | 16.8 µM | – | – | – | 33.7 µM
15 | O=C1C=C(c2c(O)ccc3ccccc23)c2cc(O)ccc2C1=O | – | 31.5 µM | – | – | – | – | – | 31.9 µM | – | 47.9 µM | – | 30.3 µM | – | 29.7 µM | – | 34.9 µM | – | 36.8 µM | – | 36 µM
16 | N#CC(I)CS(=O)(=O)c1ccccc1 (stereo not drawn) | 1.87 µM | 3.35 µM | – | – | – | – | 13.2 µM | 26.9 µM | 2 µM | 4.51 µM | 16.2 µM | 39.8 µM | 16.7 µM | 31.7 µM | > 100 µM | > 100 µM | 17.6 µM | 33.2 µM | 16.6 µM | 30.7 µM
17 | Cc1nc2sccn2c1-c1nc2sccn2c1/C=C1/C(=O)Nc2ccccc21 | 7.72 µM | > 100 µM | 3.79 µM | > 100 µM | – | – | 1.4 µM | 10.2 µM | 2.96 µM | 10.7 µM | 1.92 µM | 7.77 µM | 9.44 µM | > 100 µM | 2.12 µM | 8.09 µM | 2.68 µM | 36.8 µM | 5.42 µM | 46.2 µM
18 | O=C1C=C(Nc2ccc(Cl)cc2C(=O)c2ccccc2)c2ccccc2C1=O | – | > 100 µM | – | > 100 µM | – | > 100 µM | – | – | – | > 100 µM | – | > 100 µM | – | > 100 µM | – | > 100 µM | – | > 100 µM | – | > 100 µM
19 | CN1Nc2ccccc2CC1=O | – | > 100 µM | – | > 100 µM | – | – | – | > 100 µM | – | > 100 µM | – | > 100 µM | – | > 100 µM | – | > 100 µM | – | > 100 µM | – | > 100 µM
